Assay results: US11229618B2 (Amarin Pharmaceuticals Ireland Limited, priority 2012, dated 2022)

System: subjects with Age-Associated Memory Impairment
Assay: AAMI 6-week study: CDR computerized cognitive test battery
Assay type: in vivo, human
Conditions: for Quality of Episodic Secondary Memory, LS mean difference versus placebo: overall; for Self-Rated Contentment, treatment effects: p<0.001
Experimental: A single-center, 6-week, double-blind, randomizes, parallel-group, placebo-controlled, dose-ranging pilot study was performed to evaluate the efficacy, tolerability, and safety of >96% ethyl-EPA in subjects with subjective and objective memory impairment according to generally accepted criteria for Age-Associated Memory Impairment (“AAMI”). The primary objective of the study was to determine the effect of >96% ethyl-EPA 1 g, 2 g, and 4 g daily, compared to placebo, on cognitive performance in subjects with AAMI.
Ninety-four subjects were randomized into one of six groups: 1 g E-EPA daily (n=23), 2 g E-EPA daily (n=24), 4 g E-EPA daily (n=24), 1 g placebo daily (n=7), 2 g placebo daily (n=8), and 4 g placebo daily (n=8). E-EPA was provided as 500 mg soft gel capsules containing>96% E-EPA and 0.2% dl-α-tocopherol as an antioxidant. Placebo capsules contained 467 mg of liquid paraffin and 0.2% dl-α-tocopherol. Ninety-one subjects completed the study. Two subjects in the 2 g E-EPA group and one subject in the 2 g placebo group discontinued the study.
The study consisted of a screening visit, a training visit, and four study visits. At the screening visit, subjects' eligibility was determined through cognitive tests (verbal paired associated learning [PAL] subscale, vocabulary subtest, Memory Assessment Clinics Questionnaire [MAC-Q], mini mental state evaluation [MMSE] and MINI [mini international neuropsychiatric interview; sections 1 and 2 of Diagnostic and Statistical Manual of Mental Disorders, 4th Edition (DSM-IV) plus dysthymia]), haematology, clinical chemistry and 12-lead electrocardiogram (ECG). At the training visit, subjects were shown how to use the CDR computerized system. Subjects took study drug for 6 weeks and on Days 0, 14, 28 and 42, subjects underwent the CDR cognitive test battery.
A selection of tasks from the CDR computerized cognitive assessment system were administered at Visit 2 (training visit), Visit 3 (baseline), Visit 4 (Day 14), Visit 5 (Day 28) and Visit 6 (Day 42). Parallel forms of the tests were presented at each testing session. All tasks were computer-controlled, the information presented on high resolution monitors, and the responses recorded via a response model containing two buttons: one marked ‘no’ and the other ‘yes’. Five CDR composite scores were used as the primary/secondary outcome variables. The task titles were: • Word Presentation • Immediate Word Recall • Picture Presentation • Simple Reaction Time • Digit Vigilance • Choice Reaction Time • Spatial Working Memory • Numeric Working Memory • Delayed Word Recall • Word Recognition • Picture Recognition • Bond-Lader Visual Analogue Scales of Mood and Alertness • Screen, Using the Computer Mouse
Difference from baseline data for each major variable was evaluated by an Analysis of Covariance (“ANCOVA”) using SAS® PROC MIXED Version 8.2. Fixed effects for treatment, day, time point, treatment by day, treatment by time point, treatment by day by time-point were fitted. Subject within treatment was fitted as a repeated effect using the repeated statement. The compound symmetry covariance structure was used. Subjects' time-matched predose assessments on Day 0 were used as a covariate in the analysis.
Least squares means (LS means) were calculated for treatment by day, treatment by time-point and treatment by day by time-point interaction. This formal analysis was conducted for the ITT and Study PP Populations separately.
A post-hoc analysis compared the individual placebo groups (1 g, 2 g and 4 g paraffin oil) with the corresponding ethyl-EPA doses.

[1] = post-hoc analysis, 1 g, Days 14 and 28

For `CC/C=C\C/C=C\C/C=C\C/C=C\C/C=C\CCCC(=O)OCC` [IPE, all-cis eicosa-5,8,11,14,17-pentaenoic acid ethyl ester], the “Continuity of Attention, effect of treatment” value (ITT) was “no statistically significant effect of treatment”, the “Quality of Episodic Secondary Memory, effect of treatment” value (ITT) was “no statistically significant effect of treatment” and the “Self-Rated Alertness, effect of treatment” value (ITT) was “no statistically significant effect of treatment”. For the same compound, the “Self-Rated Calmness, effect of treatment” value (ITT) was “no statistically significant effect of treatment”, the “Self-Rated Contentment, LS mean difference to placebo” value (ITT) was “no statistically significant effects” and the “Speed of Memory and contributing subtasks, effect of treatment” value (ITT) was “no statistically significant effects of treatment”. For the same compound, the “Power of Attention, effect of treatment” value (ITT, 1, 2, 4 g daily vs placebo) was “no statistically significant effect of treatment”, the “Immediate Word Recall Accuracy, LS mean difference versus placebo” value (ITT, 1 g, AM 1, p=0.040) was “statistically significant decreases” and the “Immediate Word Recall Accuracy, LS mean difference versus placebo” value (ITT, 1 g, Day 14, p=0.028) was “statistically significant decreases”. For the same compound, the “Picture Recognition Speed versus placebo” value (ITT, 1 g, Day 14 at AM 2, p=0.084) was “trends for benefits”, the “Immediate Word Recall Accuracy, LS mean difference versus placebo” value (ITT, 1 g, Day 14 at PM 2, p=0.020) was “statistically significant decreases” and the “Word Recognition Sensitivity Index, LS mean difference versus placebo” value (ITT, 1 g, Day 28, p=0.024) was “statistically significant decreases”. The “Picture Recognition Speed versus placebo” value (ITT, 1 g, Day 28 at AM 1, p=0.085) was “trends for benefits”, the “Picture Recognition Sensitivity Index, LS mean difference versus placebo” value (ITT, 1 g, Day 28 at AM 2, p=0.017) was “statistically significant decrease” and the “Picture Recognition Sensitivity Index, LS mean difference versus placebo” value (ITT, 1 g, Day 28 at PM 2, p=0.040) was “statistically significant decrease”. The “Quality of Episodic Secondary Memory, LS mean difference versus placebo” value (“Quality … LS mean difference versus placebo” for short) (ITT, 1 g, p=0.040) was “statistically significant decreases”, the “Immediate Word Recall Accuracy, LS mean difference versus placebo” value (ITT, 2 g, AM 1, p=0.028) was “statistically significant decreases” and the “Immediate Word Recall Accuracy, LS mean difference versus placebo” value (ITT, 2 g, Day 28, p=0.017) was “statistically significant decreases”. For the same compound, the “Self-Rated Alertness, LS mean difference versus placebo” value (ITT, 2 g, Day 28, p=0.047) was “statistically significant decrease in ratings”, the “Immediate Word Recall Accuracy, LS mean difference versus placebo” value (ITT, 2 g, Day 28 at AM 1, p=0.006) was “statistically significant decreases” and the “Self-Rated Alertness, LS mean difference versus placebo” value (ITT, 2 g, Day 28 at AM 2, p=0.041) was “statistically significant decrease in ratings”. For the same compound, the “Quality … LS mean difference versus placebo” value (ITT, 2 g, p=0.035) was “statistically significant decreases”, the “Spatial Working Memory Speed, LS mean difference versus placebo” value (ITT, 4 g, Day 14 at PM 1, p=0.048) was “statistically significant benefit” and the “Word Recognition Sensitivity Index, LS mean difference versus placebo” value (ITT, 4 g, Day 28 at PM 2, p=0.030) was “statistically significant decrease”. For the same compound, the “Word Recognition Sensitivity Index, LS mean difference versus placebo” value (ITT, 4 g, Day 42, p=0.038) was “statistically significant decreases”, the “Spatial Working Memory Speed, LS mean difference versus placebo” value (ITT, 4 g, Day 42 at AM 1, p=0.061) was “trend for a benefit” and the “Word Recognition Sensitivity Index, LS mean difference versus placebo” value (ITT, 4 g, PM 2, p=0.045) was “statistically significant decrease”. The “Self-Rated Contentment, treatment effects” value (ITT) was “statistically significant treatment by day interaction”, the “Choice Reaction Time, treatment effects” value (ITT, p=0.011) was “statistically significant treatment by day interaction” and the “Spatial Working Memory Sensitivity Index, treatment effects” value (ITT, p=0.015) was “statistically significant treatment by day interaction”. The “Quality of Working Memory, treatment effects” value (ITT, p=0.019) was “statistically significant treatment by day interaction”, the “Numeric Working Memory Sensitivity Index, treatment effects” value (ITT, p=0.089) was “statistical trend for a treatment by day interaction” and the “Continuity of Attention, effect of treatment” value (Study Per Protocol) was “no statistically significant effect of treatment”. For the same compound, the “Digit Vigilance Targets Detected, treatment effects” value (Study Per Protocol, p=0.040) was “statistically significant treatment by time-point interaction”, the “Power of Attention, effect of treatment” value (Study Per-Protocol) was “no statistically significant effect of treatment” and the “Quality of Episodic Secondary Memory, effect of treatment” value (Study Per-Protocol) was “no statistically significant effects of treatment”. For the same compound, the “Self-Rated Alertness, effect of treatment” value (Study Per-Protocol) was “no statistically significant effect of treatment”, the “Self-Rated Calmness, effect of treatment” value (Study Per-Protocol) was “no statistically significant effect of treatment” and the “Self-Rated Contentment, LS mean difference to placebo” value (Study Per-Protocol) was “no statistically significant effects”. For the same compound, the “Speed of Memory and contributing subtasks, effect of treatment” value (Study Per-Protocol) was “no statistical significant effects of treatment”, the “Immediate Word Recall Accuracy, LS mean difference to placebo” value (Study Per-Protocol, 1 g, AM 1, p=0.038) was “statistically significant decreases” and the “Immediate Word Recall Accuracy, LS mean difference to placebo” value (Study Per-Protocol, 1 g, AM 2, p=0.048) was “statistically significant decreases”. The “Immediate Word Recall Accuracy, LS mean difference to placebo” value (Study Per-Protocol, 1 g, Day 14, p=0.024) was “statistically significant decreases”, the “Immediate Word Recall Accuracy, LS mean difference to placebo” value (Study Per-Protocol, 1 g, Day 14 at PM 2, p=0.019) was “statistically significant decreases” and the “Word Recognition Sensitivity Index, LS mean difference to placebo” value (Study Per-Protocol, 1 g, Day 28, p=0.027) was “statistically significant decreases”. The “Picture Recognition Sensitivity Index, LS mean difference versus placebo” value (Study Per-Protocol, 1 g, Day 28 at AM 2, p=0.020) was “statistically significant decreases”, the “Picture Recognition Sensitivity Index, LS mean difference versus placebo” value (Study Per-Protocol, 1 g, Day 28 at PM 2, p=0.026) was “statistically significant decreases” and the “Quality … LS mean difference versus placebo” value (Study Per-Protocol, 1 g, p=0.043) was “statistically significant decreases”. For the same compound, the “Immediate Word Recall Accuracy, LS mean difference to placebo” value (Study Per-Protocol, 2 g, AM 1, p=0.029) was “statistically significant decreases”, the “Immediate Word Recall Accuracy, LS mean difference to placebo” value (Study Per-Protocol, 2 g, Day 28, p=0.017) was “statistically significant decreases” and the “Self-Rated Alertness, LS mean difference versus placebo” value (Study Per-Protocol, 2 g, Day 28, p=0.035) was “statistically significant decrease in ratings”. The “Immediate Word Recall Accuracy, LS mean difference to placebo” value (Study Per-Protocol, 2 g, Day 28 at AM 1, p=0.006) was “statistically significant decreases”, the “Self-Rated Alertness, LS mean difference versus placebo” value (Study Per-Protocol, 2 g, Day 28 at AM 2, p=0.033) was “statistically significant decrease in ratings” and the “Quality … LS mean difference versus placebo” value (Study Per-Protocol, 2 g, p=0.036) was “statistically significant decreases”. For the same compound, the “Word Recognition Sensitivity Index, LS mean difference to placebo” value (Study Per-Protocol, 4 g, Day 42, p=0.038) was “statistically significant decreases”, the “Self-Rated Calmness, LS mean difference versus placebo” value (Study Per-Protocol, 4 g, Day 42 at PM 1, p=0.071) was “statistical trend for an increase in ratings” and the “Self-Rated Contentment, treatment effects” value (Study Per-Protocol) was “statistically significant treatment by day interaction”. The “Choice Reaction Time, treatment effects” value (Study Per-Protocol, p=0.013) was “statistically significant treatment by day interaction”, the “Spatial Working Memory Sensitivity Index, treatment effects” value (Study Per-Protocol, p=0.014) was “statistically significant treatment by day interaction” and the “Quality of Working Memory, treatment effects” value (Study Per-Protocol, p=0.021) was “statistically significant treatment by day interaction”. For the same compound, the “Self-Rated Calmness versus corresponding placebo” value (post-hoc analysis) was “no differences between active treatment and placebo”, the “Self-rated Alertness versus corresponding placebo” value [1] was “decreases in ratings” and the “Self-rated Contentment versus corresponding placebo” value [1] was “decreases in ratings”. For the same compound, the “Power of Attention versus corresponding placebo” value (post-hoc analysis, 4 g, Day 42) was “overall benefit versus the corresponding placebo”, the “Spatial Working Memory Sensitivity Index versus corresponding placebo” value (post-hoc analysis, 4 g, Day 42, Study PP Population) was “overall benefit” and the “Simple Reaction Time versus corresponding placebo” value (post-hoc analysis, 4 g, PM 2 collapsed across days and several time-points on Days 14 and 42) was “improvements in performance”. The “Choice Reaction Time versus corresponding placebo” value (post-hoc analysis, 4 g, all study days) was “overall benefit versus corresponding placebo” and the “subtask measures of Speed of Memory versus corresponding placebo” value (post-hoc analysis, mostly for 1 g) was “some signs of improvement in performance”.
